Patent publication US7459450B2, “Neuropeptide receptor modulators” (Schering Corporation, priority 2004, dated 2008)

target: T1, Human NPY Y1 receptors (Homo sapiens, UniProt P25929); assay: NPY Receptor Binding Assay; conditions: Procedure A compounds, rated A/B/C
T1 construct: expressed in transfected cells; host or cells: CHO cells (membrane protein)
T1 sequence (P25929 1-384): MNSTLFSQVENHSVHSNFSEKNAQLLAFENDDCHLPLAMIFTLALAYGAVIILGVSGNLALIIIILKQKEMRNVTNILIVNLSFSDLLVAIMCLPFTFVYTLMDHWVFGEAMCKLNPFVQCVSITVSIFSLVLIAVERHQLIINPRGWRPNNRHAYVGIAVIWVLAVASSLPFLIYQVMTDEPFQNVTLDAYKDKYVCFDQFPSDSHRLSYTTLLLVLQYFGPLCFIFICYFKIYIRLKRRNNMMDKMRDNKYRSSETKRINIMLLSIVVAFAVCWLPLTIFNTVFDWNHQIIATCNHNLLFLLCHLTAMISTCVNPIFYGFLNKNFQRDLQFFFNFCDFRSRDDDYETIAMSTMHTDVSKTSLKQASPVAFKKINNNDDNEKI
Method: NPY Receptor Binding Assay
Human NPY Y1 receptors were expressed in CHO cells. Binding assays were performed in 50 mM HEPES, pH 7.2, 2.5 mM CaCl2, 1 mM MgCl2 and 0.1% BSA containing 5-10 μg of membrane protein and 0.1 nM […] in a total volume of 200 μl. Non-specific binding was determined in the presence of 1 μM NPY. The reaction mixtures were incubated for 90 minutes at room temperature then filtered through Millipore MAFC glass fiber filter plates which had been pre-soaked in 0.5% polyethleneimine. The filters were washed with phosphate-buffered saline, and radioactivity was measured in a Packard TopCount scintillation counter.

Compound	Ki [µM]
c1ccc2sc(NCCc3ccc(N(C4=NCCS4)C4=NCCS4)cc3)nc2c1 [Example 14]	> 10
CS(=O)(=O)c1ccc2nc(NCCc3ccc(NC4=NCCS4)cc3)sc2c1 [Example 15]	1 to 10
COc1ccc2nc(NCCc3ccc(NC4=NCCS4)cc3)sc2c1 [Example 16]	1 to 10
Cc1ccc2nc(NCCc3ccc(NC4=NCCS4)cc3)sc2c1 [Example 17]	1 to 10
O=[N+]([O-])c1ccc2nc(NCCc3ccc(NC4=NCCS4)cc3)sc2c1 [Example 18]	1 to 10
Clc1ccc2nc(NCCc3ccc(NC4=NCCS4)cc3)sc2c1 [Example 19]	1 to 10
Clc1cc2nc(NCCc3ccc(NC4=NCCS4)cc3)sc2cc1Cl [Example 20]	1 to 10
Fc1ccc2nc(NCCc3ccc(NC4=NCCS4)cc3)sc2c1 [Example 21]	1 to 10
COc1cccc2sc(NCCc3ccc(NC4=NCCS4)cc3)nc12 [Example 22]	1 to 10
Cc1cccc2sc(NCCc3ccc(NC4=NCCS4)cc3)nc12 [Example 23]	1 to 10
c1ccc(NC2=NCCS2)c(CCNc2nc3ccccc3s2)c1 [Example 24]	> 10
c1cc(CCNc2nc3ccccc3s2)cc(NC2=NCCS2)c1 [Example 25]	> 10

same assay, conditions: Procedure B compounds, rated A/B/C

Compound	Ki [µM]
CCOC(=O)N1CCN=C1Nc1ccc(CCNc2nc3ccccc3s2)cc1 [Example 26]	> 10
CCOC(=O)N1CC(c2ccccc2)N=C1Nc1ccc(CCNc2nc3ccccc3s2)cc1 (stereo not shown) [Example 27]	> 10
CCOC(=O)N1C(Nc2ccc(CCNc3nc4ccccc4s3)cc2)=NC(C)C1c1ccccc1 (stereo not shown) [Example 28]	> 10
CCOC(=O)N1CC2(CCCC2)N=C1Nc1ccc(CCNc2nc3ccccc3s2)cc1 [Example 29]	> 10
O=C(c1ccccc1)N1CC(c2ccccc2)N=C1Nc1ccc(CCNc2nc3ccccc3s2)cc1 (stereo not shown) [Example 30]	> 10
CC1N=C(Nc2ccc(CCNc3nc4ccccc4s3)cc2)N(C(=O)c2ccccc2)C1c1ccccc1 (stereo not shown) [Example 31]	> 10
O=C(c1ccccc1)N1CC2(CCCC2)N=C1Nc1ccc(CCNc2nc3ccccc3s2)cc1 [Example 32]	> 10
CCC1CN(C(=O)c2ccccc2)C(Nc2ccc(CCNc3nc4ccccc4s3)cc2)=N1 (stereo not shown) [Example 33]	> 10
CCOC(=O)N1CC2CCCN2/C1=N\c1ccc(CCNc2nc3ccccc3s2)cc1 (stereo not shown) [Example 34]	> 10
O=C(c1ccccc1)N1CC2CCCN2/C1=N\c1ccc(CCNc2nc3ccccc3s2)cc1 (stereo not shown) [Example 35]	> 10

same assay, conditions: Procedure C compounds, rated A/B/C

Compound	Ki [µM]
CCOC(=O)N1C(=O)CN=C1Nc1ccc(CCNc2nc3ccccc3s2)cc1 [Example 36]	> 10
CCOC(=O)N1C(=O)[C@H](C)N=C1Nc1ccc(CCNc2nc3ccccc3s2)cc1 [Example 37]	> 10
CCOC(=O)N1C(=O)[C@H](CC(=O)O)N=C1Nc1ccc(CCNc2nc3ccccc3s2)cc1 [Example 38]	> 10
CCOC(=O)N1C(=O)[C@H](CC2CCCCC2)N=C1Nc1ccc(CCNc2nc3ccccc3s2)cc1 [Example 39]	> 10
CCOC(=O)N1C(=O)[C@H](CCC(=O)O)N=C1Nc1ccc(CCNc2nc3ccccc3s2)cc1 [Example 40]	> 10
CCOC(=O)N1C(=O)[C@H]([C@@H](C)CC)N=C1Nc1ccc(CCNc2nc3ccccc3s2)cc1 [Example 41]	> 10
O=C(O)C[C@@H]1N=C(Nc2ccc(CCNc3nc4ccccc4s3)cc2)N(C(=O)c2ccccc2)C1=O [Example 49]	> 10
O=C(c1ccccc1)N1C(=O)[C@H](CC2CCCCC2)N=C1Nc1ccc(CCNc2nc3ccccc3s2)cc1 [Example 50]	> 10
O=C(O)CC[C@@H]1N=C(Nc2ccc(CCNc3nc4ccccc4s3)cc2)N(C(=O)c2ccccc2)C1=O [Example 51]	> 10
CC[C@H](C)[C@@H]1N=C(Nc2ccc(CCNc3nc4ccccc4s3)cc2)N(C(=O)c2ccccc2)C1=O [Example 52]	> 10
CC(C)C[C@@H]1N=C(Nc2ccc(CCNc3nc4ccccc4s3)cc2)N(C(=O)c2ccccc2)C1=O [Example 53]	> 10
CSCC[C@@H]1N=C(Nc2ccc(CCNc3nc4ccccc4s3)cc2)N(C(=O)c2ccccc2)C1=O [Example 54]	> 10

same assay, conditions: Procedure E compounds, rated A/B/C

Compound	Ki [µM]
O=[N+]([O-])c1ccc2nc(NCCc3ccc(N=C4NCCCS4)cc3)sc2c1 [Example 62]	> 10
CS(=O)(=O)c1ccc2nc(NCCc3ccc(/N=C4/NC(c5ccccc5)CCS4)cc3)sc2c1 (stereo not shown) [Example 64]	1 to 10
CS(=O)(=O)c1ccc2nc(NCCc3ccc(NC4=NCCCS4)cc3)sc2c1 [Example 65]	1 to 10
Clc1cc2nc(NCCc3ccc(/N=C4/NC(c5ccccc5)CCS4)cc3)sc2cc1Cl (stereo not shown) [Example 66]	> 10
O=[N+]([O-])c1ccc2nc(NCCc3ccc(/N=C4/NC(c5ccccc5)CCS4)cc3)sc2c1 (stereo not shown) [Example 67]	> 10
c1ccc(/N=C2\NCCCS2)c(CCNc2nc3ccccc3s2)c1 [Example 68]	> 10
c1cc(CCNc2nc3ccccc3s2)cc(/N=C2\NCCCS2)c1 [Example 69]	> 10
c1ccc(C2CCS/C(=N/c3ccccc3CCNc3nc4ccccc4s3)N2)cc1 (stereo not shown) [Example 70]	> 10
c1ccc(C2CCS/C(=N/c3cccc(CCNc4nc5ccccc5s4)c3)N2)cc1 (stereo not shown) [Example 71]	> 10
Clc1cc2nc(NCCc3ccc(N=C4NCCCS4)cc3)sc2cc1Cl [Example 72]	< 1
c1ccc(CN2CCS/C2=N\c2ccc(CCNc3nc4ccccc4s3)cc2)cc1 [Example 74]	> 10
O=[N+]([O-])c1ccc2nc(NCCc3ccc(/N=C4/NC5(CCCC5)CS4)cc3)sc2c1 [Example 75]	1 to 10
CC1(C)CS/C(=N\c2ccc(CCNc3nc4ccc([N+](=O)[O-])cc4s3)cc2)N1 [Example 76]	> 10
COc1ccc2nc(NCCc3ccc(/N=C4\SC5Cc6ccccc6[C@@H]5N4C)cc3)sc2c1 (stereo partly shown) [Example 77]	> 10
COc1ccc2nc(NCCc3ccc(/N=C4\SC5CCC[C@H]5N4C)cc3)sc2c1 (stereo partly shown) [Example 78]	> 10
COc1ccc2nc(NCCc3ccc(/N=C4\SC5Cc6ccccc6[C@@H]5N4C4CC4)cc3)sc2c1 (stereo partly shown) [Example 79]	> 10
COc1ccc2nc(NCCc3ccc(/N=C4\SCCN4C)cc3)sc2c1 [Example 80]	> 10
COc1ccc2nc(NCCc3ccc(/N=C4/N[C@@H](Cc5ccccc5)CS4)cc3)sc2c1 [Example 81]	1 to 10
COc1ccc2nc(NCCc3ccc(/N=C4/N[C@H](CC(C)C)CS4)cc3)sc2c1 [Example 82]	< 1
COc1ccc2nc(NCCc3ccc(/N=C4\SC[C@@H]5CCCN45)cc3)sc2c1 [Example 83]	> 10
CCC1CS/C(=N\c2ccc(CCNc3nc4ccc(OC)cc4s3)cc2)N1 (stereo not shown) [Example 84]	< 1
COc1ccc2nc(NCCc3ccc(/N=C4/NCC(c5ccccc5)S4)cc3)sc2c1 (stereo not shown) [Example 85]	> 10
Cc1ccc2nc(NCCc3ccc(/N=C4\SCCN4C)cc3)sc2c1 [Example 86]	> 10
Cc1ccc2nc(NCCc3ccc(/N=C4/N[C@@H](Cc5ccccc5)CS4)cc3)sc2c1 [Example 87]	1 to 10
Cc1ccc2nc(NCCc3ccc(/N=C4/N[C@H](CC(C)C)CS4)cc3)sc2c1 [Example 88]	< 1
Cc1ccc2nc(NCCc3ccc(/N=C4\SC[C@@H]5CCCN45)cc3)sc2c1 [Example 89]	> 10
Cc1ccc2nc(NCCc3ccc(/N=C4/NCC(c5ccccc5)S4)cc3)sc2c1 (stereo not shown) [Example 90]	> 10
CCCC1CS/C(=N\c2ccc(CCNc3nc4ccc(C)cc4s3)cc2)N1 (stereo not shown) [Example 91]	< 1
CCCCC1CS/C(=N\c2ccc(CCNc3nc4ccc(C)cc4s3)cc2)N1 (stereo not shown) [Example 92]	1 to 10
Cc1ccc2nc(NCCc3ccc(/N=C4/N[C@@H](C(C)C)CS4)cc3)sc2c1 [Example 93]	1 to 10

same assay, conditions: Table 1, rated A/B/C

Compound	Ki [µM]
Clc1ccc(C2CCSC(Nc3ccc(CCNc4nc5ccccc5s4)cc3)=N2)cc1 (stereo not shown) [Example 2]	< 1
COc1ccc(C2CCSC(Nc3ccc(CCNc4nc5ccccc5s4)cc3)=N2)cc1 (stereo not shown) [Example 3]	< 1
Clc1cccc(C2CCSC(Nc3ccc(CCNc4nc5ccccc5s4)cc3)=N2)c1 (stereo not shown) [Example 4]	< 1
Brc1ccc(C2CCSC(Nc3ccc(CCNc4nc5ccccc5s4)cc3)=N2)cc1 (stereo not shown) [Example 5]	< 1
c1ccc(C2CCCC(Nc3ccc(CCNc4nc5ccccc5s4)cc3)=N2)cc1 (stereo not shown) [Example 6]	< 1
c1ccc([C@@H]2CSC(Nc3ccc(CCNc4nc5ccccc5s4)cc3)=N2)cc1 [Example 7]	< 1
c1ccc([C@H]2CSC(Nc3ccc(CCNc4nc5ccccc5s4)cc3)=N2)cc1 [Example 8]	1 to 10
c1ccc2sc(NCCc3ccc(NC4=NC(C5CCCCC5)CCS4)cc3)nc2c1 (stereo not shown) [Example 9]	< 1
CC(C)C1CCSC(Nc2ccc(CCNc3nc4ccccc4s3)cc2)=N1 (stereo not shown) [Example 10]	< 1
CC1CCSC(Nc2ccc(CCNc3nc4ccccc4s3)cc2)=N1 (stereo not shown) [Example 11]	< 1
CC(C)CC1CCSC(Nc2ccc(CCNc3nc4ccccc4s3)cc2)=N1 (stereo not shown) [Example 12]	< 1
c1ccc(CCC2CCSC(Nc3ccc(CCNc4nc5ccccc5s4)cc3)=N2)cc1 (stereo not shown) [Example 13]	< 1
